One series concerns the target T1, α9 nAChR (Homo sapiens, UniProt Q9UGM1).
T1 construct: inferred from capture on NTA sensor
As to the kind of experiment: BLI (biolayer interferometry) affinity of peptides to α9 nAChR. It is filed as binding. To be noted: NTA sensor, α9 nAChR 5 µg/mL, peptide 1.372-1000 nM in PBS. The source says:
BLI is a label-free technology that converts optical interference signals occurring on the surface of BLI biosensors into real-time response signals. By monitoring the molecular binding process in real time, the system determines association rate constants (ka or kon), dissociation rate constants (kd or koff), and initial binding rates, and calculates affinity (KD) by fitting analysis. Here are the specific procedures: NTA sensors (Sartorius) were placed in a pre-wetting tray, which was then positioned in a black 96-well plate with 200 µL PBS per well. The NTA sensors were pre-wetted for at least 15 minutes. The target protein α9 nAChR was diluted in PBS to 5 µg/mL, with 200 µL added per well. Test peptides were dissolved in PBS and serially diluted threefold, with concentrations from high to low as 1000 nM, 333.3 nM, 111.1 nM, 37.04 nM, 12.35 nM, 4.115 nM, and 1.372 nM, with an additional well with PBS only as a zeroconcentration control. After equilibrating the instrument baseline, the NTA sensor was used to immobilize the target protein α9 nAChR. Once immobilization was complete, the baseline was re-equilibrated, followed by a 5-minute association and a 5-minute dissociation phase. Affinity measurements of the test peptides were conducted sequentially using the above procedure. The procedure for measuring peptide affinity to α7 nAChR was similar, except that the α7 nAChR concentration was 20 µg/mL. Tables 2 and 3 show the BLI-determined affinities of alanine-scan peptide analogs with target proteins, which identified sites on the parent peptide suitable for modification. Subsequently, single-site non-natural amino acid substituted peptides were evaluated by BLI for target protein affinity. Finally, multi-site combinatorial modified peptides were measured for affinity by BLI, leading to the selection of high-affinity peptides for further screen and drug development potential. Table 2 Test Results for Affinity of Modified Peptides to α9 nAChR
(BLI is a label-free optical method that tracks binding on a fibre tip over time.)

The test system of series [1] is mouse oxaliplatin acute chemotherapy pain model. As to the kind of experiment: Mouse oxaliplatin chemotherapy pain model, multiple peptides (Example 8). It is filed as in vivo. To be noted: single dose 3 mg/kg s.c., 0.5-8 h post-dose, n=3. As to the method:
Oxaliplatin was dissolved in 5% glucose solution to a concentration of 1 mg/mL. For model induction, each male C57 mouse (Shanghai Bikai Keyi Biotechnology Co., Ltd.) received a single intraperitoneal injection of oxaliplatin at 10 mg/kg. Mice in the negative control or blank control group received 5% glucose solution. Approximately one week after model induction, mechanical pain thresholds of the mice were measured three times per mouse, and the average value was calculated. Mice were then randomly assigned to groups based on their pain thresholds. Drug administration was carried out according to the dosing schedule shown in Table 7, with a single dose per mouse. Mechanical pain thresholds were measured at 0.5, 1, 2, 4, 6, and 8 h post-dose. […] Table 7 Dosing Scheme for Oxaliplatin Chemotherapy Pain Model in Mice

The nature of series [2]: Plasma stability of AJ003-40 and AJ003-24 (HPLC, Example 4). To be noted: human plasma; for main peak area: 2 mg/mL. The format is in vitro ADME. As to the method: Peptides AJ003-40 and AJ003-24 were separately weighed and mixed with human plasma to prepare solutions at 2 mg/mL. 300 µL of peptide-containing plasma was mixed with 300 µL acetonitrile, centrifuged at 4°C and 12,000 rpm for 5 minutes, and the supernatant was filtered through an organic membrane. 200 µL of the filtrate was transferred to an LC vial as the 0 h sample. Peptide-containing plasma was incubated in a 37°C water bath. For AJ003-40, 300 µL of plasma was sampled at 24 h, mixed with 300 µL acetonitrile, centrifuged, filtered, and 200 µL of the filtrate was transferred to an LC vial as the 24 h sample. For AJ003-24, 300 µL of plasma was sampled at 22 h, processed similarly, and 200 µL of the filtrate was transferred to an LC vial as the 22 h sample.

Positions of bridges follow the written chain, without caps; N, C: chain ends. Non-standard residues stand in square brackets, D forms with d. Residues, ends and D or L forms follow the SMILES beside them. Bip = N[C@@H](Cc1ccc(-c2ccccc2)cc1)C(=O)O; Hyp = O=C(O)[C@@H]1C[C@@H](O)CN1; Nle = CCCC[C@H](N)C(=O)O; Orn = NCCC[C@H](N)C(=O)O; Aib = CC(C)(N)C(=O)O

T1 sequence (Q9UGM1 23-479): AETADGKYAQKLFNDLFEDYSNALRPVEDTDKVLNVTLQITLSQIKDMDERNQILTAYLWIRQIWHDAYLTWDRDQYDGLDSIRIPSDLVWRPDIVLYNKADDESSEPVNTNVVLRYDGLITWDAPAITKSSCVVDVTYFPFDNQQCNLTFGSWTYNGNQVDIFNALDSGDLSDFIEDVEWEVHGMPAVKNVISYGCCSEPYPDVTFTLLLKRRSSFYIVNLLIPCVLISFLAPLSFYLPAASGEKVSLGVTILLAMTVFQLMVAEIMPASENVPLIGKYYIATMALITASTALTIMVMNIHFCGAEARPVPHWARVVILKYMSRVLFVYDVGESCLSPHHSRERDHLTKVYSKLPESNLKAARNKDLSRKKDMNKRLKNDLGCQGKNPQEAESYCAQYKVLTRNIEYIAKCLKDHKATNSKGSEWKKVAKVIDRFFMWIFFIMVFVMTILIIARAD

As to `CC(C)C[C@H](NC(=O)[C@@H](NC(=O)[C@H]1CSSC[C@H](NC(=O)[C@H](CO)NC(=O)CN)C(=O)N[C@@H](CO)C(=O)N[C@@H]([C@@H](C)O)C(=O)N2CCC[C@H]2C(=O)N2CCC[C@H]2C(=O)N[C@@H](CO)C(=O)N1)C(C)C)C(=O)N[C@@H](Cc1ccc(O)cc1)C(=O)N[C@@H](CO)C(=O)O` [AJ003, GSCSTPPS-(D-Cys)-VLYS (disulfide bond between positions 3 and 9)] (H-GSCSTPPS[dC]VLYS-OH; disulfide 3-9), the Kd – broadly, a measure of binding affinity in units of concentration – on α9 nAChR turned out to be 4.48 nM.
Turning to `CCCC[C@H](NC(=O)[C@@H](NC(=O)[C@H]1CSSC[C@H](NC(=O)[C@H](CO)NC(=O)CN)C(=O)N[C@@H](CO)C(=O)N[C@H]([C@H](C)O)C(=O)N2C[C@H](O)C[C@H]2C(=O)N2C[C@H](O)C[C@H]2C(=O)NC(C)(C)C(=O)N1)C(C)C)C(=O)N[C@@H](Cc1ccc(-c2ccccc2)cc1)C(=O)N[C@@H](CCCN)C(N)=O` [AJ003-36, GSCS-(D-Thr)-Hyp-Hyp-Aib-(D-Cys)-V-Nle-Bip-Orn-NH2 (3,9 disulfide bond)] (H-GSCS[dT][Hyp][Hyp][Aib][dC]V[Nle][Bip][Orn]-NH2; disulfide 3-9), in series [1], the “analgesic activity against oxaliplatin-induced chemotherapy pain (mechanical pain threshold compared with the model group)” value was “effective analgesic activity”.
For `CCCC[C@H](NC(=O)[C@@H](NC(=O)[C@H]1CSSC[C@H](NC(=O)[C@H](CO)NC(=O)CN)C(=O)N[C@@H](CO)C(=O)N[C@H]([C@H](C)O)C(=O)N2C[C@H](O)C[C@H]2C(=O)N2C[C@H](O)C[C@H]2C(=O)N[C@@H](CO)C(=O)N1)C(C)C)C(=O)N[C@@H](Cc1c[nH]c2ccccc12)C(=O)N[C@@H](CCCN)C(N)=O` [AJ003-40, GSCS-(D-Thr)-Hyp-Hyp-S-(D-Cys)-V-Nle-W-Orn-NH2 (3,9 disulfide bond)] (H-GSCS[dT][Hyp][Hyp]S[dC]V[Nle]W[Orn]-NH2; disulfide 3-9), the main peak area in series [2] (0 h) was found to be 15149.38; in series [2] (37°C, 24 h), 11829.51. Further, the metabolised at 24 h, 2 mg/mL in series [2] (37°C, 24 h, read-out: degradation) is 21.9%.

The values above are taken from EP4725956A1, “MODIFIED POLYPEPTIDE AND USE THEREOF IN FIELD OF ANALGESIA” (Nanjing Anji Biotechnology Co., Ltd., priority 2023, dated 2024).
